According to patent US20010044457A1, “Cancer Treatment” (priority 2000, published 2001):

Tested on: pancreatic (MiaPaCa) cancer
Assay: in vivo pancreatic (MiaPaCa) cancer nude mouse tumor model
Experimental: The control is PEG. Both the control and the active are given once a week to the end. The doses were 500 mg/kg, 750 mg/kg and 1000 mg/kg. The surviving animals average tumor weight in mg is: […]

COc1ccc(C=Nn2cc(-c3ccccc3)nc2N)cc1 [2-Amino-1-(4-methoxybenzyliden)amino-4-phenylimidazole]
Deaths (500 mg/kg once a week, Day 1): 0 | Tumor Weight (surviving animals average) (500 mg/kg once a week, Day 1): 77 mg | Deaths (500 mg/kg once a week, Day 5): 0 | Tumor Weight (surviving animals average) (500 mg/kg once a week, Day 5): 161 mg | Deaths (500 mg/kg once a week, Day 9): 0 | Tumor Weight (surviving animals average) (500 mg/kg once a week, Day 9): 322 mg | Deaths (500 mg/kg once a week, Day 12): 0 | Tumor Weight (surviving animals average) (500 mg/kg once a week, Day 12): 271 mg | Deaths (500 mg/kg once a week, Day 16): 0 | Tumor Weight (surviving animals average) (500 mg/kg once a week, Day 16): 596 mg | Deaths (500 mg/kg once a week, Day 19): 0 | Tumor Weight (surviving animals average) (500 mg/kg once a week, Day 19): 640 mg | Deaths (500 mg/kg once a week, Day 23): 0 | Tumor Weight (surviving animals average) (500 mg/kg once a week, Day 23): 638 mg | Deaths (500 mg/kg once a week, Day 26): 0 | Tumor Weight (surviving animals average) (500 mg/kg once a week, Day 26): 532 mg | efficacy in tumor model (500 mg/kg, 750 mg/kg and 1000 mg/kg once a week, control PEG): dose responsive efficacy | Deaths (750 mg/kg once a week, Day 1): 0 | Tumor Weight (surviving animals average) (750 mg/kg once a week, Day 1): 76 mg | Deaths (750 mg/kg once a week, Day 5): 0 | Tumor Weight (surviving animals average) (750 mg/kg once a week, Day 5): 117 mg | Deaths (750 mg/kg once a week, Day 9): 0 | Tumor Weight (surviving animals average) (750 mg/kg once a week, Day 9): 290 mg | Deaths (750 mg/kg once a week, Day 12): 0 | Tumor Weight (surviving animals average) (750 mg/kg once a week, Day 12): 281 mg | Deaths (750 mg/kg once a week, Day 16): 0 | Tumor Weight (surviving animals average) (750 mg/kg once a week, Day 16): 369 mg | Deaths (750 mg/kg once a week, Day 19): 0 | Tumor Weight (surviving animals average) (750 mg/kg once a week, Day 19): 364 mg | Deaths (750 mg/kg once a week, Day 23): 0 | Tumor Weight (surviving animals average) (750 mg/kg once a week, Day 23): 420 mg | Deaths (750 mg/kg once a week, Day 26): 0 | Tumor Weight (surviving animals average) (750 mg/kg once a week, Day 26): 418 mg | Deaths (1000 mg/kg once a week, Day 1): 0 | Tumor Weight (surviving animals average) (1000 mg/kg once a week, Day 1): 90 mg | Deaths (1000 mg/kg once a week, Day 5): 0 | Tumor Weight (surviving animals average) (1000 mg/kg once a week, Day 5): 90 mg | Deaths (1000 mg/kg once a week, Day 9): 0 | Tumor Weight (surviving animals average) (1000 mg/kg once a week, Day 9): 150 mg | Deaths (1000 mg/kg once a week, Day 12): 0 | Tumor Weight (surviving animals average) (1000 mg/kg once a week, Day 12): 130 mg | Deaths (1000 mg/kg once a week, Day 16): 0 | Tumor Weight (surviving animals average) (1000 mg/kg once a week, Day 16): 120 mg | Deaths (1000 mg/kg once a week, Day 19): 1 | Tumor Weight (surviving animals average) (1000 mg/kg once a week, Day 19): 110 mg | Deaths (1000 mg/kg once a week, Day 23): 0 | Tumor Weight (surviving animals average) (1000 mg/kg once a week, Day 23): 198 mg | Deaths (1000 mg/kg once a week, Day 26): 0 | Tumor Weight (surviving animals average) (1000 mg/kg once a week, Day 26): 192 mg
